Values joined by “and” are separate entries in the source; they are usually repeats but may differ in a detail not shown here. Identical values can stand only once. Inconclusive results and toxic doses are left out. Peptide text beside a SMILES is read from it. * marks the point of attachment. Cbz = O=C(OCc1ccccc1)*
Tested on: P388 leukemia ip, CD2F1 mice, survival T/C
Assay: NCI In Vivo Anticancer Drug Screen. Data for tumor model P388 Leukemia (intraperitoneal) in CD2F1 (CDF1) mice
Details: endpoint: median survival time, higher = longer survival
Outline: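 Mice carrying the transplanted tumor received test compound or vehicle. Survival was recorded in each group, and the value is the treated-group measurement divided by that of the vehicle-treated control group.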

[1] = dose: 60.0 mg/kg/injection, schedule: Q01DX005 (ip), vehicle: saline with Tween-80
[2] = dose: 120.0 mg/kg/injection, schedule: Q01DX005 (ip), vehicle: saline with Tween-80
[3] = dose: 12.5 mg/kg/injection, schedule: Q01DX009 (ip), vehicle: saline
[4] = dose: 50.0 mg/kg/injection, schedule: Q01DX009 (ip), vehicle: saline
[5] = dose: 100.0 mg/kg/injection, schedule: Q01DX009 (ip), vehicle: saline
[6] = dose: 50.0 mg/kg/injection, schedule: Q01DX005 (ip), vehicle: saline with Tween-80
[7] = dose: 100.0 mg/kg/injection, schedule: Q01DX005 (ip), vehicle: saline with Tween-80
[8] = dose: 200.0 mg/kg/injection, schedule: Q01DX005 (ip), vehicle: saline with Tween-80
[9] = dose: 50.0 mg/kg/injection, schedule: Q01DX009 (ip), vehicle: saline with Tween-80
[10] = dose: 100.0 mg/kg/injection, schedule: Q01DX009 (ip), vehicle: saline with Tween-80
[11] = dose: 200.0 mg/kg/injection, schedule: Q01DX009 (ip), vehicle: saline with Tween-80
[12] = dose: 25.0 mg/kg/injection, schedule: Q01DX009 (ip), vehicle: Klucel (hydroxypropylcellulose) (HPC)
[13] = dose: 50.0 mg/kg/injection, schedule: Q01DX009 (ip), vehicle: Klucel (hydroxypropylcellulose) (HPC)
[14] = dose: 200.0 mg/kg/injection, schedule: Q01DX009 (ip), vehicle: Klucel (hydroxypropylcellulose) (HPC)
[15] = dose: 100.0 mg/kg/injection, schedule: Q04DX002 (ip), vehicle: Klucel (hydroxypropylcellulose) (HPC)
[16] = dose: 200.0 mg/kg/injection, schedule: Q04DX002 (ip), vehicle: Klucel (hydroxypropylcellulose) (HPC)
[17] = dose: 400.0 mg/kg/injection, schedule: Q04DX002 (ip), vehicle: Klucel (hydroxypropylcellulose) (HPC)
[18] = dose: 100.0 mg/kg/injection, schedule: Q01DX009 (ip), vehicle: Klucel (hydroxypropylcellulose) (HPC)
[19] = dose: 6.25 mg/kg/injection, schedule: Q01DX009 (ip), vehicle: saline with Tween-80
[20] = dose: 12.5 mg/kg/injection, schedule: Q01DX009 (ip), vehicle: saline with Tween-80
[21] = dose: 25.0 mg/kg/injection, schedule: Q01DX009 (ip), vehicle: saline with Tween-80
[22] = dose: 240.0 mg/kg/injection, schedule: Q01DX005 (ip), vehicle: saline with Tween-80

CC(S)c1nc2ccccc2[nH]1 (configuration not stated)
T/C (dose: 100.0 mg/kg/injection, schedule: Q01DX001 (ip), vehicle: Klucel + Tween-80): 100 % of control
T/C (dose: 200.0 mg/kg/injection, schedule: Q01DX001 (ip), vehicle: Klucel + Tween-80): 97 % of control
T/C (dose: 400.0 mg/kg/injection, schedule: Q01DX001 (ip), vehicle: Klucel + Tween-80): 111 % of control

CC(=O)OCC1OC([S-])C(OC(C)=O)C(OC(C)=O)C1OC(C)=O.CC[PH+](CC)CC.CC[PH+](CC)CC.[Au].[Au] (configuration not stated)
T/C (dose: 5.0 mg/kg/injection, schedule: Q01DX009 (ip), vehicle: Klucel (hydroxypropylcellulose) (HPC)): 121 % of control
T/C (dose: 10.0 mg/kg/injection, schedule: Q01DX009 (ip), vehicle: Klucel (hydroxypropylcellulose) (HPC)): 163 % of control

CN(C)C1CS(=O)(=O)OC2=C1COCC2 (configuration not stated)
T/C [1]: 101 % of control
T/C [2]: 105 % of control

O=C(O)Cc1ccc([N+](=O)[O-])cc1[N+](=O)[O-]
T/C [3]: 100 % of control
T/C (dose: 25.0 mg/kg/injection, schedule: Q01DX009 (ip), vehicle: saline): 92 % of control
T/C [4]: 100 % of control
T/C [5]: 91 % of control

O=C(OCCOc1ccc(C(F)(F)F)cc1[N+](=O)[O-])c1ccc(Cl)cc1Cl
T/C (dose: 15.0 mg/kg/injection, schedule: Q01DX005 (ip), vehicle: saline with Tween-80): 90 % of control
T/C (dose: 30.0 mg/kg/injection, schedule: Q01DX005 (ip), vehicle: saline with Tween-80): 91 % of control
T/C [1]: 88 % of control

CCN(Cc1cccc(S(=O)(=O)O)c1)c1ccc(C(=C2C=CC(=[N+](CC)Cc3cccc(S(=O)(=O)O)c3)C=C2)c2ccccc2Cl)cc1
T/C [6]: 103 % of control
T/C [7]: 99 % of control
T/C [8]: 110 % of control

CCCCCCCC(=O)Nc1ccc(CC)cc1
T/C (dose: 100.0 mg/kg/injection, schedule: Q04DX003 (ip), vehicle: other): 109 % of control
T/C (dose: 200.0 mg/kg/injection, schedule: Q04DX003 (ip), vehicle: other): 90 % of control
T/C (dose: 400.0 mg/kg/injection, schedule: Q04DX003 (ip), vehicle: other): 118 % of control

O=C(N/N=C/c1ccccc1O)c1ccccc1-n1cccc1
T/C [9]: 95 % of control
T/C [10]: 104 % of control
T/C [11]: 94 % of control

NCCc1ccc([N+](=O)[O-])cc1
T/C [4]: 104 % of control and 96 % of control
T/C [5]: 98 % of control and 105 % of control

Cc1ccc(S(=O)(=O)N=N/C=C2/C=CC=CN2O)cc1
T/C [12]: 118 % of control and 121 % of control
T/C [13]: 119 % of control
T/C [14]: 124 % of control

Cc1cn(O)ccc1=S
T/C [15]: 101 % of control
T/C [16]: 99 % of control
T/C [17]: 101 % of control

c1ccc(C2=C([P+](c3ccccc3)(c3ccccc3)c3ccccc3)CCO2)cc1
T/C (dose: 1.56 mg/kg/injection, schedule: Q01DX009 (ip), vehicle: saline): 110 % of control and 117 % of control
T/C (dose: 2.6 mg/kg/injection, schedule: Q01DX009 (ip), vehicle: saline): 114 % of control
T/C (dose: 3.13 mg/kg/injection, schedule: Q01DX009 (ip), vehicle: saline): 119 % of control and 120 % of control
T/C (dose: 4.0 mg/kg/injection, schedule: Q01DX009 (ip), vehicle: saline): 114 % of control
T/C (dose: 6.0 mg/kg/injection, schedule: Q01DX009 (ip), vehicle: saline): 117 % of control
T/C (dose: 6.25 mg/kg/injection, schedule: Q01DX009 (ip), vehicle: saline): 124 % of control
T/C (dose: 9.0 mg/kg/injection, schedule: Q01DX009 (ip), vehicle: saline): 118 % of control
T/C [3]: 100 % of control and 109 % of control

CCCC(NC(=O)C(C)N)C(=O)O (configuration not stated)
T/C [13]: 107 % of control
T/C [18]: 95 % of control
T/C [14]: 102 % of control
T/C (dose: 400.0 mg/kg/injection, schedule: Q01DX009 (ip), vehicle: Klucel (hydroxypropylcellulose) (HPC)): 102 % of control

COc1ccc(/C=C2/SC(=S)N(Cc3ccco3)C2=O)cc1
T/C [19]: 100 % of control
T/C [20]: 91 % of control
T/C [11]: 86 % of control

CC(C)(C)C1=CS(=O)(=O)C(C(C)(C)C)C(O)O1 (configuration not stated)
T/C [21]: 100 % of control

COc1cc2c(c(-c3cn(C)c4ccccc34)c1OC)OCO2
T/C [1]: 97 % of control
T/C [2]: 98 % of control
T/C [22]: 97 % of control

O=C(O)c1cc(Cc2ccc(O)c(C(=O)O)c2)ccc1O (tested in a mixture with another compound)
T/C [12]: 112 % of control
T/C [13]: 107 % of control and 115 % of control
T/C [18]: 121 % of control

CC(=O)N1NC(=O)c2c([nH]c3ccccc23)C1c1ccccc1 (configuration not stated)
T/C [15]: 101 % of control
T/C [16]: 106 % of control
T/C [17]: 101 % of control

NC(=S)NNC(=O)CCC(=O)Nc1ccccc1Cl
T/C [1]: 103 % of control
T/C [2]: 102 % of control
T/C [22]: 99 % of control

CC1COC2(CCC(=CC(=O)O)CC2)O1 (configuration not stated)
T/C (dose: 100.0 mg/kg/injection, schedule: Q01DX001 (ip), vehicle: Klucel (hydroxypropylcellulose) (HPC)): 100 % of control
T/C (dose: 200.0 mg/kg/injection, schedule: Q01DX001 (ip), vehicle: Klucel (hydroxypropylcellulose) (HPC)): 102 % of control
T/C (dose: 400.0 mg/kg/injection, schedule: Q01DX001 (ip), vehicle: Klucel (hydroxypropylcellulose) (HPC)): 97 % of control

CCCCCCC(=O)/C=C/c1ccc(OCc2ccccc2)c(OCc2ccccc2)c1
T/C (dose: 6.25 mg/kg/injection, schedule: Q01DX005 (ip), vehicle: saline with Tween-80): 92 % of control
T/C (dose: 12.5 mg/kg/injection, schedule: Q01DX005 (ip), vehicle: saline with Tween-80): 92 % of control

O=C(c1ccco1)C(O)NC(=S)c1ccc(Cl)cc1 (configuration not stated)
T/C [9]: 113 % of control and 117 % of control
T/C [10]: 116 % of control

Cc1ccc(O)c(CN2CCN(Cc3cc(C)ccc3O)CC2)c1
T/C (dose: 60.0 mg/kg/injection, schedule: Q01DX005 (ip), vehicle: Klucel (hydroxypropylcellulose) (HPC)): 86 % of control
T/C (dose: 120.0 mg/kg/injection, schedule: Q01DX005 (ip), vehicle: Klucel (hydroxypropylcellulose) (HPC)): 91 % of control
T/C (dose: 240.0 mg/kg/injection, schedule: Q01DX005 (ip), vehicle: Klucel (hydroxypropylcellulose) (HPC)): 88 % of control

O=C(N=Nc1c(Cl)c(O)c2ccccc2c1O)c1ccccc1O
T/C [19]: 100 % of control
T/C [20]: 108 % of control
T/C [21]: 106 % of control
T/C [9]: 104 % of control and 115 % of control

CC(NC(=O)OCc1ccccc1)C(=O)NC(CCCN=C(N)N)C(=O)O (stereo not drawn) (Cbz-Ala-Arg-OH; configuration not given here)
T/C [6]: 100 % of control
T/C [7]: 105 % of control
T/C [8]: 108 % of control

COc1cccc2c1C(=O)c1c(O)c3c(c(O)c1C2=O)C[C@@H](C(C)=O)C[C@@H]3OC1CC(N)C(O)C(C)O1 (some centres not stated)
T/C (dose: 6.25 mg/kg/injection, schedule: Q04DX003 (ip), vehicle: water): 109 % of control
T/C (dose: 12.5 mg/kg/injection, schedule: Q04DX003 (ip), vehicle: water): 120 % of control
T/C (dose: 25.0 mg/kg/injection, schedule: Q04DX003 (ip), vehicle: water): 113 % of control
T/C (dose: 50.0 mg/kg/injection, schedule: Q04DX003 (ip), vehicle: water): 120 % of control
T/C (dose: 100.0 mg/kg/injection, schedule: Q04DX003 (ip), vehicle: water): 93 % of control

Cc1ccc(S(=O)(=O)OI(C#CC(C)(C)C)c2ccccc2)cc1
T/C (dose: 12.5 mg/kg/injection, schedule: Q01DX005 (ip), vehicle: Klucel (hydroxypropylcellulose) (HPC)): 102 % of control
T/C (dose: 25.0 mg/kg/injection, schedule: Q01DX005 (ip), vehicle: Klucel (hydroxypropylcellulose) (HPC)): 102 % of control
T/C (dose: 50.0 mg/kg/injection, schedule: Q01DX005 (ip), vehicle: Klucel (hydroxypropylcellulose) (HPC)): 101 % of control and 117 % of control

CCCC(=O)C(CC)C1(C(=O)OC)NC(=S)NC(=O)C1C#N (configuration not stated)
T/C (dose: 60.0 mg/kg/injection, schedule: Q01DX005 (ip), vehicle: saline): 98 % of control
T/C (dose: 120.0 mg/kg/injection, schedule: Q01DX005 (ip), vehicle: saline): 105 % of control
T/C (dose: 240.0 mg/kg/injection, schedule: Q01DX005 (ip), vehicle: saline): 98 % of control
